In the supplement of paper PMC10307832:

Assays:
Assay in all cases: relative viability (nuclei count vs DMSO), 5 days (fraction); higher = more cells survive
Shikonin + Pictilisib = compound: CC(C)=CC[C@@H](O)C1=CC(=O)c2c(O)ccc(O)c2C1=O [Shikonin] + CS(=O)(=O)N1CCN(Cc2cc3nc(-c4cccc5[nH]ncc45)nc(N4CCOCC4)c3s2)CC1 [Pictilisib] (partner 1 µM)
How it was run: (§1)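 Lung cancer cell lines were pin-tool dosed in 1536-well plates on the day after seeding, with either a lone drug or a fixed anchor-drug dose plus five library-drug doses (not always all listed) in √10 steps. Nuclei were counted on 4× images after 5 days. Relative viability is the ratio of treated-well to vehicle-well nuclei counts, with each value a median of duplicate plates.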

Shikonin + AZD7762 = compound: CC(C)=CC[C@@H](O)C1=CC(=O)c2c(O)ccc(O)c2C1=O [Shikonin] + NC(=O)Nc1cc(-c2cccc(F)c2)sc1C(=O)N[C@H]1CCCNC1 [AZD7762] (partner 0.2 µM)
How it was run: as §1

Shikonin + Trametinib = compound: CC(C)=CC[C@@H](O)C1=CC(=O)c2c(O)ccc(O)c2C1=O [Shikonin] + CC(=O)Nc1cccc(-n2c(=O)n(C3CC3)c(=O)c3c(Nc4ccc(I)cc4F)n(C)c(=O)c(C)c32)c1 [Trametinib] (partner 0.02 µM)
How it was run: as §1

[1] = compound: CC(C)N(CCCNC(=O)Nc1ccc(C(C)(C)C)cc1)C[C@H]1O[C@@H](n2ccc3c(N)ncnc32)[C@H](O)[C@@H]1O + N=C(N)NC(=N)NCCc1ccccc1 [Phenformin] (partner 250 µM)
How it was run: as §1

Cell Line | relative viability (Shikonin + Pictilisib; first compound 0.01 µM) | relative viability (Shikonin + Pictilisib; first compound 0.1 µM) | relative viability (Shikonin + Pictilisib; first compound 0.3162 µM) | relative viability (Shikonin + Pictilisib; first compound 1 µM) | relative viability (Shikonin + AZD7762; first compound 0.01 µM) | relative viability (Shikonin + AZD7762; first compound 0.1 µM) | relative viability (Shikonin + AZD7762; first compound 0.3162 µM) | relative viability (Shikonin + AZD7762; first compound 1 µM) | relative viability (Shikonin + Trametinib; first compound 0.01 µM) | relative viability (Shikonin + Trametinib; first compound 0.1 µM) | relative viability (Shikonin + Trametinib; first compound 0.3162 µM) | relative viability (Shikonin + Trametinib; first compound 1 µM) | relative viability ([1]; first compound 0.08 µM) | relative viability ([1]; first compound 0.253 µM) | relative viability ([1]; first compound 0.8 µM) | relative viability ([1]; first compound 2.53 µM) | relative viability ([1]; first compound 8 µM)
NCI-H1975 | 0.287 | 0.283 | 0.268 | 0.294 | 0.746 | 0.683 | 0.808 | 0.8 | 0.275 | 0.367 | 0.33 | 0.321 | 0.393 | 0.387 | 0.202 | 0.393 | 0.338
CAL-12T | 0.368 | 0.409 | 0.35 | 0.414 | 0.606 | 0.751 | 0.622 | 0.736 | 0.346 | 0.376 | 0.243 | 0.28 | 0.539 | 0.597 | 0.585 | 0.56 | 0.489
NCI-H1623 |  |  |  |  |  |  |  |  |  |  |  |  | 0.547 | 0.666 | 0.597 | 0.607 | 0.565
HCC-44 | 0.663 | 0.835 | 0.564 | 0.728 | 1.03 | 1.01 | 1.05 | 1.04 | 1.08 | 1.01 | 0.996 | 1.08 | 0.142 | 0.155 | 0.232 | 0.219 | 0.125
EKVX | 0.46 | 0.451 | 0.496 | 0.448 | 0.744 | 0.698 | 0.851 | 0.703 | 0.326 | 0.336 | 0.389 | 0.398 | 0.229 | 0.241 | 0.223 | 0.228 | 0.202
NCI-H1651 | 0.612 | 0.562 | 0.669 | 0.64 | 0.487 | 0.517 | 0.536 | 0.44 | 0.882 | 0.873 | 0.882 | 0.83 | 0.34 | 0.302 | 0.295 | 0.288 | 0.35
NCI-H1944 | 0.352 | 0.379 | 0.353 | 0.392 | 0.454 | 0.558 | 0.763 | 0.561 | 0.382 | 0.431 | 0.415 | 0.469 | 0.223 | 0.195 | 0.199 | 0.188 | 0.198
NCI-H1703 | 0.26 | 0.238 | 0.206 | 0.205 |  | 0.125 | 0.124 | 0.113 |  |  |  |  |  |  |  |  | 
Calu-6 | 1.15 | 1.03 | 0.921 | 0.756 |  |  |  |  |  |  |  |  |  |  |  |  | 
EBC-1 | 0.331 | 0.353 | 0.369 | 0.34 |  |  |  |  |  |  |  |  |  |  |  |  | 
NCI-H1993 |  | 0.84 | 0.803 | 0.792 | 0.524 | 0.667 | 0.632 | 0.906 | 0.526 | 0.516 | 0.563 | 0.568 | 0.464 |  |  | 0.539 | 0.498
A-427 | 0.691 | 0.915 | 0.643 | 0.765 | 0.771 | 0.78 | 0.694 | 0.75 | 0.776 | 0.816 | 0.821 | 0.779 | 0.368 | 0.303 | 0.335 | 0.364 | 0.315
NCI-H2405 | 0.442 | 0.401 | 0.553 | 0.474 | 0.794 | 0.986 | 0.716 | 0.77 | 0.622 | 0.725 | 0.653 | 0.573 | 0.393 | 0.324 | 0.419 | 0.409 | 0.345
NCI-H1355 | 0.407 | 0.498 | 0.408 | 0.445 | 0.739 | 0.898 | 0.825 | 0.787 | 0.405 | 0.42 | 0.424 | 0.395 | 0.441 | 0.444 | 0.387 | 0.48 | 0.432
NCI-H358 | 0.297 | 0.366 | 0.281 | 0.343 | 0.425 | 0.62 | 0.607 | 0.603 | 0.124 | 0.124 | 0.121 | 0.126 | 0.291 | 0.303 | 0.383 | 0.286 | 0.273
SK-LU-1 | 0.511 | 0.541 | 0.442 | 0.616 |  |  |  |  | 0.46 | 0.485 | 0.513 | 0.449 | 0.569 | 0.493 | 0.519 | 0.56 | 0.45
NCI-H23 | 0.508 | 0.514 | 0.497 | 0.378 | 0.223 | 0.27 | 0.268 | 0.231 | 0.356 | 0.395 | 0.472 | 0.42 | 0.771 | 0.806 | 0.791 | 0.843 | 0.746
HOP-62 | 0.714 | 1.09 | 0.933 | 0.62 | 0.949 | 0.648 | 0.584 | 0.646 | 0.389 | 0.374 | 0.394 | 0.401 | 0.704 | 0.69 | 0.638 | 0.566 | 0.545
HARA | 0.226 | 0.527 | 0.477 | 0.43 | 0.259 | 0.348 | 0.271 | 0.368 | 0.68 | 0.54 | 0.893 | 0.627 | 0.458 | 0.413 | 0.388 | 0.425 | 0.363
PC-3 [JPC-3] | 0.69 | 0.84 | 0.759 | 0.788 | 0.825 | 0.846 | 0.755 | 1 | 0.664 | 0.688 | 0.669 | 0.616 | 0.478 | 0.491 | 0.495 | 0.451 | 0.488
NCI-H1755 | 0.468 | 0.472 | 0.406 | 0.472 | 0.384 | 0.422 | 0.373 | 0.427 | 0.703 | 0.812 | 0.756 | 0.742 | 0.62 | 0.609 | 0.614 | 0.632 | 0.554
HCC-78 | 0.185 | 0.234 | 0.188 | 0.249 | 0.647 | 0.74 | 0.534 | 0.694 | 0.773 | 0.906 | 0.828 | 0.734 | 0.804 | 0.611 | 0.682 | 0.641 | 0.717
